Measurements taken from publication PMC10535741, “Styrylpyridinium Derivatives for Fluorescent Cell Imaging” (Pharmaceuticals, 2023).

Legend:
[1] = tested on: BHK-21 (Syrian hamster kidney); assay: MTT cytotoxicity assay, BHK-21; type: cell-based
From the text: (§1) For selected compounds, 6a–6f, we performed a determination of the cytotoxicity in a wider variety of cancer and non-cancerous cell lines (see Table S2, Supplementary Materials) in order to learn the characteristic features of selectivity or the similarity of biological properties.
(§2) The HT-1080 (human connective tissue fibrosarcoma, ATCC® CCL-121™), MH-22A (mouse hepatocarcinoma, ECACC Cat. No. 96121721), A-549 (human lung carcinoma, ATCC® CCL-185™), NIH3T3 (Swiss Albino mouse embryo fibroblast, ECACC Cat. No. 93061524), Hek293 (human embryonic kidney, ATCC® CRL-1573™), BHK-21 (Syrian hamster kidney, ATCC® CCL-10™), A-431 (human epidermoid carcinoma, ATCC® CRL-1555™), Saos-2 (human osteosarcoma, ATCC® HTB-85™), HeLa (human epitheloid cervix carcinoma, ATCC® CCL-2™), U937 (human myeloid leukaemia, ATCC® CRL-1593.2™), C6 (rat glioma, ATCC® CCL-107™), and B16-F10 (murine melanoma, ATCC® CRL-6475™) cell lines were obtained from the American Type Culture Collection (ATCC) and European Collection of Authenticated Cell Cultures (ECACC).
(§3) HT-1080, MH-22A, A-549, NIH3T3, BHK-21, A-431, HeLa, and B16-F10 cells were cultured in Dulbecco’s Modified Eagle’s Medium (DMEM) with 2 mM glutamine and 10% foetal bovine serum (FBS). Hek293 cells were cultured in Eagle’s Minimum Essential Medium with 10% foetal bovine serum. U937 cells were cultured in RPMI-1640 Medium with 2 mM glutamine and 10% foetal bovine serum. C6 cells were cultured in Ham’s F12 Medium with 2 mM glutamine and 10% foetal bovine serum. Saos-2 cells were cultured in McCoy’s 5a Medium with 2 mM glutamine and 10% foetal bovine serum. The cells were incubated at 37 °C with 5% CO2, 95% air, and complete humidity. Once ~90% confluence was reached, they were detached using 0.05% trypsin/EDTA and counted. The cells were plated at optimally determined densities for the logarithmic phase of growth. These cells were then suspended at a concentration of 4000 cells/well for HT-1080, MH-22A, A-549, NIH3T3, BHK-21, A-431, HeLa, B16-F10, Hek293, and Saos-2 cells and a concentration of 9000 cells/well for U937, C6, Hek293, and GM08402 cells and added onto a 96-well plate. For background absorption, some wells remained cell free, i.e., as a blank control. Cells were incubated for 72 h at 37 °C and 5% CO2 where they were exposed to a media containing serial dilutions of the investigated compounds (n = 3). Cell viability was measured using the 3-(4,5-dimethylthiazol-2-yl)-2,5-diphenyl-tetrazolium bromide (MTT) assay. In brief, after incubating with compounds, the culture medium was removed and fresh medium with 0.2 mg/mL MTT was added to each well of the plate. After incubation (3 h, 37 °C, 5% CO2), the medium with MTT solution was removed and replaced with 200 µL DMSO and 25 µL Sorenson’s glycine buffer (glycine 0.1 M, NaCl 0.1 M, pH: 10.5 with 0.1 M NaOH). The plate was shaken for 15 min at room temperature and the optical density (OD) of the wells was determined using a multichannel spectrophotometer (Thermo Scientific Multiskan EX) at 540 nm. The quantity of the control cells was taken in calculations as 100%. The IC50 value was calculated using the program Graph Pad Prism® 3.0.
(§4) The HT-1080 (human connective tissue fibrosarcoma, ATCC® CCL-121™), MH-22A (mouse hepatocarcinoma, ECACC Cat.No. 96121721), A-549 (human lung carcinoma, ATCC® CCL-185™), NIH 3T3 (mouse Swiss Albino embryo fibroblast, ECACC Cat.No. 93061524), Hek293 (human embryonic kidney, ATCC® CRL-1573™), BHK-21 (hamster Syrian kidney, ATCC® CCL-10™), A-431 (human epidermoid carcinoma, ATCC® CRL-1555™), Saos-2 (human oste osarcoma, ATCC® HTB-85™) HeLa (human epitheloid cervix carcinoma, ATCC® CCL-2™), U937 (human myeloid leukaemia, ATCC® CRL-1593.2™), C6 (rat glioma, ATCC® CCL-107™), B16-F10 (murine melanoma, ATCC® CRL-6475™) cell lines were obtained from American Type Culture Collection (ATCC) and European Collection of Authenticated Cell Cultures […]
(§5) Table S2. […]

[2] = tested on: NIH3T3 (Swiss Albino mouse embryo fibroblast); assay: in vitro; type: cell-based
From the text: as §1, §2, §3, §4, §5

Row | Structure (SMILES) | times lower cytotoxicity of 6a compared with 6d, BHK-21 ([1]; Syrian hamster, 72 h) | times lower cytotoxicity of 6a compared with 6d, NIH3T3 ([2]; mouse, 72 h) | Cytotoxicity IC50 BHK-21 [1] | Cytotoxicity IC50 NIH3T3 [2]
1 | CCCCCCCCCCCC[n+]1ccc(C=Cc2cc(OC)c(OC)c(OC)c2)cc1.[Br-] [Compound 6a, 4-(3,4,5-trimethoxystyryl)-N-dodecylpyridinium bromide] | 12.5 times | 21.9 times |  | 
2 | CCCCCCCCCCCCCCCC[n+]1ccc(C=Cc2cc(OC)c(OC)c(OC)c2)cc1.[Br-] [Compound 6b] |  |  | 1.11 µg/mL | 1.02 µg/mL
